Measurements published in patent US7553841B2, “Amino cyclobutylamide modulators of chemokine receptor activity” (Merck & Co., Inc., priority 2003, dated 2009).

test system: chemokine receptor; assay: activity of separated cis/trans isomers (test not described); conditions: cis versus trans isomer of the same example, separated by chromatography; values not given

With `CC(O)[C@]1(C(=O)NCc2cncc(C(F)(F)F)c2)C[C@@H](N2CC[C@@]3(C=Cc4ccccc43)[C@@H](C)C2)C1` (mixture of isomers) [Example 122 cis isomer] as the compound, how does the “relative activity of the separated isomers” value (from here on “relative activity”) read?
The value was “more active isomer”.

Which “relative activity” value does the source give for `C[C@H]1CN(C2CC(C(=O)NCc3cc(C(F)(F)F)cc(C(F)(F)F)c3)C2)CC[C@@]12C=Cc1ccccc12` (stereo partly drawn) [Example 1 cis isomer] here?
The value was “more active isomer”.

With `CN(C1CCOCC1)C1CC(C(=O)NCc2cc(C(F)(F)F)cc(C(F)(F)F)c2)(c2ccccc2)C1` (stereo not drawn) [Example 41 cis isomer] as the compound, how does the “relative activity” value read?
The value was “more active isomer”.

Which “relative activity” value does the source give for `CN(C1CCOCC1)C1CC(C(=O)NCc2cc(F)cc(C(F)(F)F)c2)(c2ccccc2)C1` (stereo not drawn) [Example 42 trans isomer] here?
Its value is “active isomer”.

How did the “relative activity” value turn out when `C[C@H]1CN(C2CC(CNC(=O)c3cc(C(F)(F)F)cc(C(F)(F)F)c3)(c3ccccc3)C2)CC[C@@]12C=Cc1ccccc12` (stereo partly drawn) [Example 43 cis isomer] was run?
Its value is “active isomer”.

`C[C@H]1CN(C2CC(C)(C(=O)NCc3cc(C(F)(F)F)cc(C(F)(F)F)c3)C2)CC[C@@]12C=Cc1ccccc12` (stereo partly drawn) [Example 54 cis isomer] was tested. Which “relative activity” value did it give?
Its value is “more active isomer”.
